Experimental data: EPA's ToxValDB 9.5
Values joined by “and” are separate entries in the source; they are usually repeats but may differ in a detail not shown here. Equal entries are not always repeated.

Test system: Rattus norvegicus
Settings: Wistar
[1] = short-term, duration: 2 weeks, inhalation, F, generation: P0, P0: Lung: Lung Weight, Relative
[2] = short-term, duration: 2 weeks, inhalation, M, generation: P0, P0: Lung: Lung Weight, Relative
[3] = short-term, duration: 28 days, inhalation, F, Teeth: Incisors, Discolored
[4] = short-term, duration: 28 days, inhalation, M, Teeth: Incisors, Discolored
[5] = short-term, duration: 28 days, oral, gavage, F, Blood: Red Cell Distribution Width (RDW) + Liver: Total Cholesterol (CHOL)
[6] = short-term, duration: 28 days, oral, gavage, M, Blood: Hemoglobin (HGB) + Liver: Total Bilirubin (TBILI)

F/C(=C(/F)C(F)(C(F)(F)F)C(F)(F)F)C(F)(F)F [(E)-Perfluoro(4-methyl-2-pentene)]
3070 mg/m3: NOAEL (short-term, duration: 28 days, inhalation, F, Adrenal: Adrenal Gland Weight, Absolute + Blood: Albumin/Globulin (A/G) Ratio + Blood: Hemoglobin (HGB) + Blood: Mean Cell Volume (MCV) + …) | LOAEL [3] | NOAEL (short-term, duration: 28 days, inhalation, M, Adrenal: Adrenal Gland Weight, Absolute + Blood: Albumin/Globulin (A/G) Ratio + Blood: Hemoglobin (HGB) + Blood: Mean Cell Volume (MCV) + …) | LOAEL [4]
150 mg/kg-day: NOAEL (short-term, duration: 28 days, oral, gavage, F, Blood: Hematocrit (HCT) + Blood: Mean Cell Volume (MCV) + Blood: Red Blood Cell (RBC) + Calcium (CA) + Chloride (CL) + Gamma-glutamyl …) | LOAEL [5] | NOAEL (short-term, duration: 28 days, oral, gavage, M, Blood: Hematocrit (HCT) + Blood: Mean Cell Volume (MCV) + Blood: Platelet Count (PLT) + Blood: Red Blood Cell (RBC) + Blood: Red Cell …) | LOAEL [6]
9200 mg/m3: LOAEL (short-term, duration: 2 weeks, inhalation, F, generation: P0, P0: Kidney: Kidney, Faded + P0: Thymus: Thymus, Small + P0: Whole Body: Body Weight Change + P0: Whole Body: Body Weight, Absolute + P0: …) | LOAEL (short-term, duration: 2 weeks, inhalation, M, generation: P0, P0: Epididymis: Epididymis, Small + P0: Kidney: Kidney, Faded + P0: Prostate: Prostate, Small + P0: Seminal Vesicle: Seminal Vesicle, Small…) | NOAEL (short-term, duration: 2 weeks, inhalation, M, generation: P0, P0: Whole Body: Feed Consumption, Absolute)
21.7 mg/L: LOAEL (acute, duration: 4 hours, inhalation, F, Central Nervous System: Hunched Posture + Central Nervous System: Ruffled Fur + Lung: Lung, Non-Neoplastic Lesions + Lung: Tachypnea + Whole…) | LOAEL (acute, duration: 4 hours, inhalation, M, Central Nervous System: Frightened behavior + Central Nervous System: Ruffled Fur + Central Nervous System: Tremor + Lung: Lung, Non-…)
4290 mg/m3 and 4300 mg/m3: NOAEL (developmental, duration: 2 weeks, inhalation, M/F, generation: F1, F1: Whole Body: Clinical Signs + F1: Whole Body: Fetal Alterations, Total + F1: Whole Body: Male Pups per Pups Sexed + F1: Whole Body: Pup …) | NOAEL (reproduction developmental, duration: 2 weeks, inhalation, F, generation: P0, P0: Ovary: Corpora Lutea + P0: Uterus: Implantation + P0: Whole Body: Dams with Stillborn Pups + P0: Whole Body: Days of Cohabitation + P0: …) | NOAEL (reproduction developmental, duration: 2 weeks, inhalation, M, generation: P0, P0: Whole Body: Days of Cohabitation + P0: Whole Body: Fertility Index + P0: Whole Body: Percent Mating) | NOAEL (short-term, duration: 2 weeks, inhalation, F, generation: P0, P0: Kidney: Kidney, Faded + P0: Liver: Liver Weight, Absolute + P0: Liver: Liver Weight, Relative + P0: Lung: Lung Weight, Absolute + P0: …) | LOAEL [1] | NOAEL (short-term, duration: 2 weeks, inhalation, M, generation: P0, P0: Epididymis: Epididymis Weight, Absolute + P0: Epididymis: Epididymis Weight, Relative + P0: Epididymis: Epididymis, Duct, Exfoliated …) | LOAEL [2]
450 mg/kg-day: NOAEL (short-term, duration: 28 days, oral, gavage, F, Adrenal: Adrenal Gland Histopathology + Blood: Mean Cell Hemoglobin (MCH) + Blood: Platelet Count (PLT) + Bone: Femur Histopathology + Bone…) | LOAEL (short-term, duration: 28 days, oral, gavage, F, Blood: Hematocrit (HCT) + Blood: Hemoglobin (HGB), Recovery + Blood: Mean Cell Volume (MCV) + Blood: Red Blood Cell (RBC) + Calcium (CA) + …) | NOAEL (short-term, duration: 28 days, oral, gavage, M, Adrenal: Adrenal Gland Histopathology + Bone: Femur Histopathology + Bone: Sternum Histopathology + Brain: Brain Weight, Absolute, Recovery…) | LOAEL (short-term, duration: 28 days, oral, gavage, M, Blood: Hematocrit (HCT) + Blood: Mean Cell Hemoglobin Concentration (MCHC), Recovery + Blood: Mean Cell Volume (MCV) + Blood: Platelet Count…)
1840 mg/m3: NOAEL [1] | NOAEL [2]
50 mg/kg-day: LOAEL (short-term, duration: 28 days, oral, gavage, F, Blood: Hemoglobin (HGB) + Blood: Mean Cell Hemoglobin Concentration (MCHC) + Liver: Liver Weight, Absolute + Spleen: Spleen Weight, Absolute) | NOAEL [5] | NOAEL [6] | LOAEL (short-term, duration: 28 days, oral, gavage, M, Blood: Mean Cell Hemoglobin (MCH) + Blood: Mean Cell Hemoglobin Concentration (MCHC) + Brain: Brain Weight, Absolute + Testis: Testis Weight…)
1230 mg/m3 and 1220 mg/m3: NOAEL [3] | NOAEL [4]
